Tests used:
MK-801 challenged mouse = experiment: MK-801 challenge novel object recognition (NOR), mouse; format: in vivo; conditions: dosed orally, data not shown
Description: Brain plasma concentration ratio (Kp) was calculated by dividing brain concentration by plasma concentration for each animal. Unbound brain to unbound plasma concentration ratio (Kp,uu) is calculated using the following formula: Kp,uu = (Brain ng/g x brain fu)/(plasma ng/ml x plasma fu).
In-vitro determination of blood-brain barrier penetration potential
Blood-brain barrier penetration was determined using MDR1-MDCK cell monolayers by Absorption Systems, following their protocol. In short, compounds were incubated at […] final concentration on one side of the cell monolayer for 2 hours. Compounds concentration on either side of the monolayer was determined by LC-MS/MS and apparent permeability and efflux ratio were determined as described in Wang, Q. et al.1
MK-801 induced novel object recognition test […]
Behavioral analysis: An observer blinds to treatment condition and novel object location used the video recordings to score the interaction of the animal with the two objects offline. The duration an animal explored each object was determined as the total time an animal is facing the object with its nose being ≦ 2 cm away from the object and some discernible whisker movement […]
Data Analysis: Statistical analyses can be performed using EXSUS ver 8.1 (CAC Croit Corporation). The vehicle and compound-treated groups were analyzed by one-way ANOVA followed by Dunnett's test. […]

rat TREK-1 = target: T1, rat TREK-1 (Rattus norvegicus, UniProt Q920B6); experiment: rat TREK-1 manual patch clamp; format: cell-based; conditions: read-out: TREK-1 IC50 (rat, MPC)
T1 sequence (Q920B6 1-426): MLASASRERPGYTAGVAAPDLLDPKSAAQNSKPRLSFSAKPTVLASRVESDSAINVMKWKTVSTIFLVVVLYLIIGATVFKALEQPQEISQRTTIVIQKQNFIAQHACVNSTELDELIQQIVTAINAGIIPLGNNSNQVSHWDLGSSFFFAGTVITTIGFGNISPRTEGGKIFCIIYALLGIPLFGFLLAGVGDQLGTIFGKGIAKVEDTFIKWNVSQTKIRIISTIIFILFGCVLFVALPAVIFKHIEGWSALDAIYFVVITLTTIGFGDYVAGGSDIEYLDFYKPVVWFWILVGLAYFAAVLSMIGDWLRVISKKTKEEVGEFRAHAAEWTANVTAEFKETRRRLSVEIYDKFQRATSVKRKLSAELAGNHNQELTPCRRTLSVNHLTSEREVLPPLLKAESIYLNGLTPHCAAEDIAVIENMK

[1] = Plasma protein binding, mouse; format: in vitro ADME; conditions: bound; for fraction unbound at 6 h, 5 µM: mouse, plasma, pH 7.4, mouse plasma, read-out: PPB mouse (converted)
Description: Plasma protein binding and Brain homogenate binding: Determination of fraction unbound (f u) in plasma was conducted in vitro via equilibrium dialysis using HTDialysis (HTD) membrane plates. The top half of the plate was filled with 100 uL of Dubelco’s Phosphate Buffered Saline, pH 7.4 (DPBS). Compounds were diluted into plasma from each species (5 µM final concentration), which was aliquoted in triplicate to the ‘bottom half’ of the prepared HTD plate wells. The HTD plate was sealed and incubated for 6 hours at 37 °C. Following incubation, each well (both top and bottom halves) were transferred (20 µL) to the corresponding wells of a 96-shallow-well (V-bottom) plate. The daughter plates were then matrix-matched (DPBS side wells received equal volume of plasma, and plasma side wells received equal volume of DPBS), and extraction solution (120 µL; acetonitrile containing 50 nM carbamazepine as IS) was added to all wells of both daughter plates to precipitate protein and extract test article. The plates were then sealed and centrifuged (3500 rcf) for 10 minutes at ambient temperature. Supernatant (60 µL) from each well of the daughter plates was then transferred to the corresponding wells of new daughter plates (96-shallow-well, V bottom) containing water (Milli-Q, 60 µL/well), and the plates were sealed in preparation for LC-MS/MS analysis (see LC-MS/MS analysis method below).
The unbound fraction (f u) was calculated following the equation below, and mean values for each species were calculated from 3 replicates. […]
Fraction unbound for both plasma and brain samples was determined using Equation 4.
Equation 4 Determination of fraction unbound in plasma. […]

CC(=O)N1CCC(n2ncc(Cl)c2C(=O)Nc2ncc(C#Cc3ccccc3)cc2C)CC1 [Compound 10, 1-(1-Acetylpiperidin-4-yl)-4-chloro-N-(3-methyl-5-(phenylethynyl)pyridin-2-yl)-1H-pyrazole-5-carboxamide]
MED in the NOR cognition assay, MK-801 challenged mouse (MK-801 challenged mouse): 1 mg/kg | IC50 (rat TREK-1): 0.088 µM | fraction unbound at 6 h, 5 µM [1]: 0.018

CC(=O)N1CC[C@@H](n2ncc(Cl)c2C(=O)Nc2ncc(C#Cc3ccc(F)cc3)cc2C)[C@H](F)C1 [Compound 11, 1-((3R,4R)-1-Acetyl-3-fluoropiperidin-4-yl)-4-chloro-N-(5-((4-fluorophenyl)ethynyl)-3-methylpyridin-2-yl)-1H-pyrazole-5-carboxamide]
MED in the NOR cognition assay, MK-801 challenged mouse (MK-801 challenged mouse): 3 mg/kg | IC50 (rat TREK-1): 0.2 µM

Cc1cc(C#Cc2ccccc2)cnc1NC(=O)c1c(Cl)cnn1[C@H]1CCOC1 [Compound 15a, (S)-4-Chloro-N-(3-methyl-5-(phenylethynyl)pyridin-2-yl)-1-(tetrahydrofuran-3-yl)-1H-pyrazole-5-carboxamide]
PPB mouse ([1]; mouse plasma): 98.0% | fraction unbound at 6 h, 5 µM [1]: ~0.02

— publication PMC12621189, “Optimization of Selective and CNS Penetrant Alkyne-Based TREK Inhibitors: The Discovery and Characterization of ONO-9517601 (VU6022856) and ONO-7927846 (VU6024391)” (Journal of Medicinal Chemistry, 2025)
